Results taken from patent US11518754B2, “Radiolabeled pharmaceuticals and methods of making and using same” (YALE UNIVERSITY, priority 2017, dated 2022).
Values joined by “and” are separate entries in the source; they are usually repeats but may differ in a detail not shown here. Equal entries are not always repeated.

Tests used:
SV2A [1] = biological target: T1, SV2A (Homo sapiens (Human), UniProt Q7L0J3); assay: PET imaging with (R)-11C-3 in patients with Parkinson's disease; type: in vivo; details: PD subjects vs age-matched healthy controls
[2] = Plasma free fraction (fp) by ultrafiltration method; type: in vitro ADME, rhesus monkeys (Macaca mulatta); details: plasma (from arterial blood samples), rhesus monkey plasma
SV2A [3] = biological target: SV2A (Papio anubis, UniProt A0A096NYL0); assay: PET measurement in an olive baboon; type: in vivo, olive baboon (Papio anubis); details: gray matter regions, baboon brain
Method: Experiments were conducted in one olive baboon (P. anubis). […] PET images of the brain were acquired using a Siemens Biograph mCT system (Siemens Medical Solutions). […] List-mode data were acquired for 120 min and binned into sinograms with the following frame timing: 6×30 sec; 3×1 min; 2×2 min; and 22×5 min.
PET data were reconstructed with a TrueX+TOF algorithm with corrections for attenuation, normalization, scatter and randoms. Regions of interest (ROIs) were manually delineated on a single representative anatomical baboon magnetic resonance image (MRI) registered to a template image. […] MRI-to-PET registration parameters were obtained to apply the ROIs to individual PET scans, and regional time-activity curves (TACs) were generated. VT values were estimated using a one-tissue (1T) compartment model with the metabolite-corrected input function.
Arterial blood samples were collected to determine the plasma input function, including measurement of the unmetabolized ^11C-3 fraction. The free fraction of ^11C-3 in plasma was determined in arterial blood samples taken immediately before ^11C-3 injection.

SV2A [4] = biological target: SV2A (Macaca mulatta, UniProt H9EQH8); assay: PET imaging studies in rhesus monkeys; details: for Binding potential (BPND): from VT, centrum semiovale as reference region
Method: Experiments were performed in rhesus monkeys (Macaca mulatta). Rhesus monkeys were sedated using intramuscular (i.m.) injection of ketamine and glycopyrrolate approximately 2 hours before the PET scan and anesthesia was maintained with isoflurane (1.5%-2.5%) for the duration of the experiments. Baseline PET scans were obtained after intravenous (i.v.) injection of ^11C-3, ^18F-3, ^18F-4, ^18F-5, ^18F-10, ^18F-11, or ^18F-12.
Arterial blood samples were collected during the PET scans to calculate the plasma input function and to determine the unmetabolized parent fraction using the automatic column-switching HPLC system. Plasma free fraction (fp) was measured in triplicate using the ultrafiltration method.
PET scans of the brain were acquired using the FOCUS 220 PET scanner (Siemens Preclinical Solutions) with a reconstructed image resolution of approximately 1.5 mm. After a transmission scan, the radioligand was injected i.v. as a 3 min slow bolus by an infusion pump (PHD 22/2000; Harvard Apparatus). List-mode data were acquired for 120-180 min and binned into sinograms with an applicable number of frames. Scan data were reconstructed with a Fourier rebinning/filtered backprojection algorithm with corrections for attenuation, scanner normalization, radiation scatter, and randoms. Regions of interest were manually delineated on a single representative anatomic rhesus monkey MR image registered to a template image. The regions used in this study were amygdala, brain stem, caudate, centrum semiovale, cerebellum, cingulate cortex, frontal cortex, globus pallidus, insular cortex, nucleus accumbens, occipital cortex, pons, putamen, temporal cortex, and thalamus. Registration parameters were obtained to apply the regions of interest to individual PET scans, and regional time-activity curves were generated. Regional time-activity curves of the brain were analyzed with the 1-tissue-(1T) compartment model. Fit quality was compared with the 2-tissue model and the multilinear analysis method to calculate VT.
Typical injected radioactivity amount was 0.5-5 mCi per injection, with typical injected mass amount of 1-10 μg.
Specific binding to SV2A was further examined for ^11C-3, ^18F-3, and ^18F-11 in blocking studies, where levetiracetam or UCB-J ((R)-3) was i.v. infused before injection of the radiotracers.

SV2A [5] = biological target: T1, SV2A; assay: PET imaging with (R)-11C-3 in patients with AD dementia and MCI; type: in vivo; details: AD/MCI patients vs cognitively normal subjects
SV2A [6] = biological target: T1, SV2A; assay: PET imaging with (R)-11C-3 in patients with temporal lobe epilepsy
Method: PET imaging with (R)-^11C-3 was performed in healthy human subjects and patients with various disorders to determine if SV2A imaging can be used as an in vivo biomarker to detect changes in synaptic density in human diseases.
PET imaging with (R)-^11C-3 was carried out in ten healthy control subjects and nine patients of temporal lobe epilepsy (TLE) with mesial temporal sclerosis (MTS).

SV2A (Macaca mulatta, UniProt H9EQH8), sequence (H9EQH8 1-742): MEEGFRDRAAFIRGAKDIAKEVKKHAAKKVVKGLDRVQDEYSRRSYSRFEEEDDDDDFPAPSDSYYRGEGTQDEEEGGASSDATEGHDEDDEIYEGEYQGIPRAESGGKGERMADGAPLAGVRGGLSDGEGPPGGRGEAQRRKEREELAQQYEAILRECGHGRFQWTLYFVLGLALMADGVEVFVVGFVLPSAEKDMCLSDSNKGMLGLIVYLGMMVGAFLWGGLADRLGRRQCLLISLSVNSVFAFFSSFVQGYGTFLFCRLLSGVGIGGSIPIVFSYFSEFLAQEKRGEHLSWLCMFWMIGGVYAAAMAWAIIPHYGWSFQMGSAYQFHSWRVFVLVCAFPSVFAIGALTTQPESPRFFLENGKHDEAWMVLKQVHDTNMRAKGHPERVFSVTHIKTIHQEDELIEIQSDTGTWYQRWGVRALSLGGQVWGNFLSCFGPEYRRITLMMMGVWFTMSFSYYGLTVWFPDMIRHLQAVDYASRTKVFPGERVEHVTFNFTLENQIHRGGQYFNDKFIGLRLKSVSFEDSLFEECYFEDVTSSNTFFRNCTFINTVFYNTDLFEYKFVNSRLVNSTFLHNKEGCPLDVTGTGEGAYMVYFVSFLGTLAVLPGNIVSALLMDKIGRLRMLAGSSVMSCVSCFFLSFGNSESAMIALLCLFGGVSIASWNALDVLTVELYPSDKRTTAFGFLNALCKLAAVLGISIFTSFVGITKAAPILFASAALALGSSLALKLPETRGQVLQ
T1 sequence (Q7L0J3 whole entry, looked up): as the sequence (H9EQH8 1-742) above, with S64G, V572I counted along it
SV2A (Papio anubis, UniProt A0A096NYL0), sequence (A0A096NYL0 1-742): as the sequence (H9EQH8 1-742) above, with G108S counted along it

Cc1cnccc1CN1CC(c2cc(F)c(F)c(F)c2)CC1=O (single isomer, unassigned) [^11C-3, 1-((3-methylpyridin-4-yl)methyl)-4-(3,4,5-trifluorophenyl) pyrrolidin-2-one]
decrease in BPND (SV2A [1]; cortical regions): 16%-20%
decrease in VT (SV2A [1]; cortical regions, listed as (R)-^11C-3): 19-23% and 19%-23%
decrease in BPND (SV2A [1]; putamen): 16%
decrease in VT (SV2A [1]; putamen): 15%
decrease in BPND (SV2A [1]; substantia nigra): 33%
decrease in VT (SV2A [1]; substantia nigra): 19%
fraction unbound [2]: 0.44 ± 0.01
peak uptake (standardized uptake value, SUV) (SV2A [3]): 10-15
time to peak uptake after injection (SV2A [3]): 6 to 16 min
Binding potential (BPND) (SV2A [4]; Amygdala): 0.85 ± 0.34
Binding potential (BPND) (SV2A [4]; Brainstem): 0.76 ± 0.21
Binding potential (BPND) (SV2A [4]; Caudate nucleus): 2.40 ± 0.72
Binding potential (BPND) (SV2A [4]; Cerebellum): 1.68 ± 0.31
Binding potential (BPND) (SV2A [4]; Cingulate cortex): 3.17 ± 0.84
Binding potential (BPND) (SV2A [4]; Frontal cortex): 3.18 ± 0.91
Binding potential (BPND) (SV2A [4]; Globus pallidus): 1.10 ± 0.28
Binding potential (BPND) (SV2A [4]; Hippocampus): 1.59 ± 0.39
Binding potential (BPND) (SV2A [4]; Insular cortex): 3.12 ± 0.81
Binding potential (BPND) (SV2A [4]; Nucleus accumbens): 3.04 ± 0.69
Binding potential (BPND) (SV2A [4]; Occipital cortex): 2.97 ± 0.65
Binding potential (BPND) (SV2A [4]; Pons): 0.75 ± 0.21
Binding potential (BPND) (SV2A [4]; Putamen): 2.42 ± 0.63
Binding potential (BPND) (SV2A [4]; Temporal cortex): 2.79 ± 0.61
Binding potential (BPND) (SV2A [4]; Thalamus): 2.03 ± 0.62
Uptake of radiotracer in blocking studies (SV2A [4]; levetiracetam (30 mg/kg) or UCB-J (150 μg/kg) i.v. 10 min before radiotracer injection): reduced to background levels
time to SUV peak in gray matter regions (SV2A [4]; rhesus monkey, in vivo, iv): slower
reduction in hippocampal VT (SV2A [5]; P=0.001): 28%
reduction in hippocampal SV2A binding (BPND) (SV2A [5]; P=0.005): 41%
asymmetries in binding relative to 18F-FDG (SV2A [6]; TLE subjects with MTS): 2.3 fold
BPND asymmetry indices (SV2A [6]; hippocampus, nine TLE subjects with MTS): −38±21%
